We go through 2 compounds from patent publication US20070134693A1, “Method for modulating the binding activity of a novel ICAM-3 binding receptor on sinusoidal endothelial cells in liver and lymph nodes” (priority 2000, published 2007).

Type in all cases: cell-based
Assay [1] concerns the target T1, L-SIGN (Homo sapiens, UniProt Q9H2X3).
T1 construct: The L-SIGN cDNA clone isolated from placental mRNA contained the entire coding region of the gene; expressed in transfected cells
T1 sequence (Q9H2X3 1-376 isoform Q9H2X3-8): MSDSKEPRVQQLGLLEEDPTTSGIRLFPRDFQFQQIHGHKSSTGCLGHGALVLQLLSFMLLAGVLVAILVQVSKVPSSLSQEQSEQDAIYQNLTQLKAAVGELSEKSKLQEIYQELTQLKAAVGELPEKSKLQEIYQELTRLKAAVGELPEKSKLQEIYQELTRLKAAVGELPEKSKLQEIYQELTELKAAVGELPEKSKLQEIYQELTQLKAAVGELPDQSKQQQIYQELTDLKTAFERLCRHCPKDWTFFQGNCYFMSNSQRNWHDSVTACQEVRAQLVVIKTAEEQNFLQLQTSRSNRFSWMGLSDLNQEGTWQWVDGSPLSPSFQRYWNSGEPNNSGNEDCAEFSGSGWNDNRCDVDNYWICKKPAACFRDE
Nature of the assay: Fluorescent beads adhesion assay, K562-L-SIGN cells. Particulars: for inhibition of adhesion of ICAM-3-coated fluorescent beads to L-SIGN: FIG. 4A; for inhibition of adhesion of HIV-1 gp120-coated fluorescent beads to L-SIGN: FIG. 4B. The procedure: (§1) FIG. 4. L-SIGN binds ICAM-3 (A) and HIV-1 gp120 (B). Adhesion of ICAM-3 and gp120 to the K562-L-SIGN and K562-DC-SIGN cells was measured with the fluorescent bead adhesion assay (Geijtenbeek, T. B. et al., 1999, Blood 94:754-764). The y-axis represents the percent cells binding ligand-coated fluorescent beads. The L-SIGN-cross-reacting mAb AZN-D2 (20 μg/ml) and AZN-D3 (20 μg/ml) inhibit the adhesion of ICAM-3 and gp120 to L-SIGN, in contrast to the DC-SIGN-specific mAb AZN-D1 (20 μg/ml). […] Adhesion of both ligands to mock transfectants was less than 5%. One representative experiment out of three is shown (SD<5%).
(§2) Carboxylate-modified TransFluorSpheres (488/645 nm, 1.0 μm; Molecular Probes, Eugene, Oreg.) were coated with ICAM-3 as was previously described for ICAM-1 (Geijtenbeek, T. B. et al., 1999, Blood 94:754-764). Fluorescent beads were coated with M-tropic HIV-1MN envelope glycoprotein gp120 as follows: Streptavidin-coated fluorescent beads were incubated with biotinylated F(ab′)2 fragment rabbit anti-sheep IgG (6 μg/ml; Jackson Immunoresearch) followed by an overnight incubation with sheep-anti-gp120 antibody D7324 (Aalto Bio Reagents Ltd, Dublin, Ireland) at 4° C. The beads were washed and incubated with 250 ng/ml purified HIV-1 gp120 (provided by Immunodiagnostics, Inc through the NIH AIDS Research and Reference Reagent Program) overnight at 4° C.
(§3) The fluorescent beads adhesion assay was performed as described by Geijtenbeek et al.(l999, supra). Briefly, cells were resuspended in adhesion buffer (20 mM Tris-HCl pH 8.0, 150 mM NaCl, 1 mM CaCl2, 2 mM MgCl2, 0.5% BSA) at a final concentration of 5×10^6 cells/ml. 50,000 cells were pre-incubated with mAb (20 μg/ml) for 10 min at room temperature. Ligand-coated fluorescent beads (20 beads/cell) were added and the suspension was incubated for 30 min at 37° C. Adhesion was determined by measuring the percentage of cells that bound fluorescent beads using flow cytometry on a FACScan (Becton Dickinson, Oxnard, Calif.).

Assay [2] deals with T2, DC-SIGN (Homo sapiens, UniProt Q9NNX6).
T2 construct: expressed in transfected cells
T2 sequence (Q9NNX6 1-404): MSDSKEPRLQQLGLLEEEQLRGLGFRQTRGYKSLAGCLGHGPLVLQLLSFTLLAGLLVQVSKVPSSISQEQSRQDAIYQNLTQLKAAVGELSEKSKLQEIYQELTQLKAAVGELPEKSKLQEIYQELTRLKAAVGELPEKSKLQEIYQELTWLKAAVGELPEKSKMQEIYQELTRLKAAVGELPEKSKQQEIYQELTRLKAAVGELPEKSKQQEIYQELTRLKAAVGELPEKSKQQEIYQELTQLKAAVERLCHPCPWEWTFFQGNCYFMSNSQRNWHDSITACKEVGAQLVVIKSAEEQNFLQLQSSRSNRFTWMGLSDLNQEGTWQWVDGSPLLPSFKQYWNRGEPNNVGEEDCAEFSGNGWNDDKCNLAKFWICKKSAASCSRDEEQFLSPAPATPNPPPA
Nature of the assay: Fluorescent beads adhesion assay, K562-DC-SIGN cells. The following applies: for inhibition of adhesion of ICAM-3-coated fluorescent beads to DC-SIGN: FIG. 4A; for inhibition of adhesion of HIV-1 gp120-coated fluorescent beads to DC-SIGN: FIG. 4B. As for the experimental part:
as §1, §2, §3

Assay [3] has as its target T2, DC-SIGN. Nature of the assay: HIV-1 enhancement assay, pseudotyped HIV-1 ADA, HEK293T cells expressing DC-SIGN co-cultured with activated T cells. The following applies: preincubation 20 μg/ml, after two days, FIG. 5B. The procedure: (§4) FIG. 5. L-SIGN captures and enhances infection of T cells with HIV-1 in trans. (A) L-SIGN captures HIV-1 and transmits it to target cells. Stable DC-SIGN or L-SIGN expressing THP-1 transfectants were pre-incubated with HIV-luc/JRFL pseudovirions to allow capture of the virus. Cells were washed and THP-1 transfectants were co-cultured with Hut/CCR5 target cells. Cell lysates were obtained after 3 days and analyzed for luciferase activity. For each of the co-culture conditions employed, mock infected controls were uniformly less than 100 counts per second in activity. Each data set represents the mean of four separate wells of infected cells. One representative experiment out of two is shown. […] Infectivity was determined after two days by measuring luciferase activity. […] Culture supernatants were collected at day 14 after K562-T cell co-culture and HIV-1 production was measured using ELISA to determine p24 antigen levels. […]
(§5) The infection assays were performed as described previously (Geijtenbeek, 2000a, supra; Geijtenbeek 2000b, supra). […] Viral stocks were evaluated by limiting dilution on GHOST CXCR4/CCR5 and 293T-CD4-CCR5 cells.
(§6) In contrast, HIV-1 enhancement assays utilized suboptimal concentrations of virus (typically <0.05 m.o.i.) without a wash step. […] Cell lysates were obtained after several days and analyzed for either luciferase activity or p24 antigen levels. […]

Assay [4] has as its target T1, L-SIGN. Description: HIV-1 enhancement assay, pseudotyped HIV-1 ADA, HEK293T cells expressing L-SIGN co-cultured with activated T cells. Particulars: preincubation 20 μg/ml, after two days, FIG. 5B. The procedure:
as §4, §5, §6

Take `O=C(O)CN(CCOCCOCCN(CC(=O)O)CC(=O)O)CC(=O)O` [EGTA]: in assay [1] (5 mM), the “inhibition of adhesion of ICAM-3-coated fluorescent beads to L-SIGN” value is on record as “inhibited” and the “inhibition of adhesion of HIV-1 gp120-coated fluorescent beads to L-SIGN” value is on record as “inhibited”. Further, in assay [2] (5 mM), the “inhibition of adhesion of ICAM-3-coated fluorescent beads to DC-SIGN” value is reported as “inhibited” and the “inhibition of adhesion of HIV-1 gp120-coated fluorescent beads to DC-SIGN” value is “inhibited”.
On to mannan, for which, in assay [3], the “inhibition of DC-SIGN-mediated enhancement of HIV-1 infection of T cells in trans (luciferase activity)” value is on record as “efficiently inhibited”. Moreover, in assay [4], the “inhibition of L-SIGN-mediated enhancement of HIV-1 infection of T cells in trans (luciferase activity)” value is reported as “efficiently inhibited”. In addition, in assay [1] (20 μg/ml), the “inhibition of adhesion of ICAM-3-coated fluorescent beads to L-SIGN” value is recorded as “inhibited” and the “inhibition of adhesion of HIV-1 gp120-coated fluorescent beads to L-SIGN” value is “inhibited”. Further, in assay [2] (20 μg/ml), the “inhibition of adhesion of ICAM-3-coated fluorescent beads to DC-SIGN” value is “inhibited” and the “inhibition of adhesion of HIV-1 gp120-coated fluorescent beads to DC-SIGN” value is on record as “inhibited”.
